These results are taken from article PMC9030254, “Target Hopping from Protein Kinases to PXR: Identification of Small-Molecule Protein Kinase Inhibitors as Selective Modulators of Pregnane X Receptor from TüKIC Library” (Cells, 2022).

What all share (experiment): Kinase profiling
Holding throughout (assay type): biochemical

The target of one test is T1, ALK (Homo sapiens, UniProt Q9UM73).
T1 construct: purchased ProQinase (Freiburg, Germany)
As for the experimental part: (§1) The analysis was performed by ProQinase (Freiburg, Germany).

A further test has as its target T2, AuroraC (Homo sapiens, UniProt Q9UQB9).
T2 construct: purchased ProQinase (Freiburg, Germany)
T2 sequence (Q9UQB9 1-309): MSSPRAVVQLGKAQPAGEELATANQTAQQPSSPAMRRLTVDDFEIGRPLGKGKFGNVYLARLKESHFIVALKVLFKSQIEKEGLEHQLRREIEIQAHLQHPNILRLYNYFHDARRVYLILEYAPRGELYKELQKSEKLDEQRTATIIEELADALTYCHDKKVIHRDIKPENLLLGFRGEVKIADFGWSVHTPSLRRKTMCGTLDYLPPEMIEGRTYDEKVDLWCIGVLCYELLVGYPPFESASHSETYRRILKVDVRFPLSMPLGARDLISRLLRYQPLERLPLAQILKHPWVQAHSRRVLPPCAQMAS
As for the experimental part:
as §1

In a further test the target is T3, CDK1/CycB1 (Homo sapiens, UniProt P06493).
T3 construct: purchased ProQinase (Freiburg, Germany)
T3 sequence (P06493 whole entry): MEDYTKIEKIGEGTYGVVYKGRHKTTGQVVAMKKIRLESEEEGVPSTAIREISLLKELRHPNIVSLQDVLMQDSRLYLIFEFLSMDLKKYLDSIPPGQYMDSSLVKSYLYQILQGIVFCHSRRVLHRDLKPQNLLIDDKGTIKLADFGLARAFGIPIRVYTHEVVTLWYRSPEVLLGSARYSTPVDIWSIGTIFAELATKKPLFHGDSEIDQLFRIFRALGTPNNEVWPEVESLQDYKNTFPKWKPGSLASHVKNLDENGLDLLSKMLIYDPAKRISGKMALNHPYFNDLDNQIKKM
T3 sequence (P14635 whole entry partner): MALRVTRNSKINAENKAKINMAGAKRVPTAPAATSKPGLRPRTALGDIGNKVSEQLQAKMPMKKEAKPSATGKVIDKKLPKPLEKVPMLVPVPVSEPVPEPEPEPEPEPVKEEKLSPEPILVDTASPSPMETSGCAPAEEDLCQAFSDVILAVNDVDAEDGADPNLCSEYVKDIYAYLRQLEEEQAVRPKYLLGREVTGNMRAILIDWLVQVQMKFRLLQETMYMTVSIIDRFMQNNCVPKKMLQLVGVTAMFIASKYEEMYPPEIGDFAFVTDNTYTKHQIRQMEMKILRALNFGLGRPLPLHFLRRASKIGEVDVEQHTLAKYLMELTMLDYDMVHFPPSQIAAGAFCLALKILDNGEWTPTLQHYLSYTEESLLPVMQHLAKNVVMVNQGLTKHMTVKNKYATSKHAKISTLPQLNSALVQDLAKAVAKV
As to the method: as §1

Another test deals with T4, EGFR (Homo sapiens, UniProt P00533).
T4 construct: purchased ProQinase (Freiburg, Germany)
T4 sequence (P00533 25-1210): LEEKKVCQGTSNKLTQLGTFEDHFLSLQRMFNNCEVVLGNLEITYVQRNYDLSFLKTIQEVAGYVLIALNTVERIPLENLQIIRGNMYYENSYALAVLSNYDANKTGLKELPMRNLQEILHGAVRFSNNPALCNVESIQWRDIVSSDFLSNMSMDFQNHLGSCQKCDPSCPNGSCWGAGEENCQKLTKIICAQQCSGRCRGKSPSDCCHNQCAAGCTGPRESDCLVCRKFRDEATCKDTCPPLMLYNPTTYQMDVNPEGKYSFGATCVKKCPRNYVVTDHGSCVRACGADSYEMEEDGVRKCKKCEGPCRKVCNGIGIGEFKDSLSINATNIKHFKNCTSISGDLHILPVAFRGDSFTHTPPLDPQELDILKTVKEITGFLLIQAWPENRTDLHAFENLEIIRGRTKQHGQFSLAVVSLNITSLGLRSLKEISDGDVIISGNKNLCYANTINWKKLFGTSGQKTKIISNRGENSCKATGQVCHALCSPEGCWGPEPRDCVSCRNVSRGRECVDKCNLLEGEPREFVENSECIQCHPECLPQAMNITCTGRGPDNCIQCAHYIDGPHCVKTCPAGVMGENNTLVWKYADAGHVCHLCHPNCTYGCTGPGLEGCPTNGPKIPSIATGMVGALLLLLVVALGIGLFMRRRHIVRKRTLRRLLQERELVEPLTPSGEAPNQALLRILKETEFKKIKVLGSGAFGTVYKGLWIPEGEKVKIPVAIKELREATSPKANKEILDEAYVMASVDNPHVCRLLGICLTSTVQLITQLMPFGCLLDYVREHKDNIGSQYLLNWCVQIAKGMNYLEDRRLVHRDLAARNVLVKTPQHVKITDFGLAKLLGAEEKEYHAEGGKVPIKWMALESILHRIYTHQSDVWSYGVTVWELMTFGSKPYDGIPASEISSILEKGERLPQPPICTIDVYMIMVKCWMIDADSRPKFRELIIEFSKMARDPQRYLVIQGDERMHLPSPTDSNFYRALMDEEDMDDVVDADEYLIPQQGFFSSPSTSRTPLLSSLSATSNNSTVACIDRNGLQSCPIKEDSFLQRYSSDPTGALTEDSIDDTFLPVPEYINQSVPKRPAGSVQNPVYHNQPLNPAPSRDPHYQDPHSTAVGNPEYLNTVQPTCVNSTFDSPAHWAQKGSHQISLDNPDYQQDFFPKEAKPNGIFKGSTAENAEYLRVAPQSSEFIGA
As for the experimental part: as §1

A further test deals with T5, FRK (Homo sapiens, UniProt P42685).
T5 construct: purchased ProQinase (Freiburg, Germany)
T5 sequence (P42685 whole entry): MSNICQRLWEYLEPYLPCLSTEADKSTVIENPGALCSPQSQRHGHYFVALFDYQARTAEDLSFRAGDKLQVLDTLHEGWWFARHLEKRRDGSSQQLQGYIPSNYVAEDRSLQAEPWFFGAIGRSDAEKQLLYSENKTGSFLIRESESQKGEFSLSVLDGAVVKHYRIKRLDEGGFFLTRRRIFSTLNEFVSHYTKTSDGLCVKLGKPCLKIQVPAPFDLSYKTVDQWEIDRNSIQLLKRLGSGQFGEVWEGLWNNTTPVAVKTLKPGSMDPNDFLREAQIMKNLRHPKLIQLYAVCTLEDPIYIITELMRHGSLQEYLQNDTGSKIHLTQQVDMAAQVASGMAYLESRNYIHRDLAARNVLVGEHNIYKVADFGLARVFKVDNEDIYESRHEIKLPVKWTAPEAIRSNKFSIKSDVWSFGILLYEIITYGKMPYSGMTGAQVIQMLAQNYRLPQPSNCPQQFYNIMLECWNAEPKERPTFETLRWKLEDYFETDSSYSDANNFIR
As for the experimental part: as §1

Another test has as its target T6, HIPK4 (Homo sapiens, UniProt Q8NE63).
T6 construct: purchased ProQinase (Freiburg, Germany)
T6 sequence (Q8NE63 1-616): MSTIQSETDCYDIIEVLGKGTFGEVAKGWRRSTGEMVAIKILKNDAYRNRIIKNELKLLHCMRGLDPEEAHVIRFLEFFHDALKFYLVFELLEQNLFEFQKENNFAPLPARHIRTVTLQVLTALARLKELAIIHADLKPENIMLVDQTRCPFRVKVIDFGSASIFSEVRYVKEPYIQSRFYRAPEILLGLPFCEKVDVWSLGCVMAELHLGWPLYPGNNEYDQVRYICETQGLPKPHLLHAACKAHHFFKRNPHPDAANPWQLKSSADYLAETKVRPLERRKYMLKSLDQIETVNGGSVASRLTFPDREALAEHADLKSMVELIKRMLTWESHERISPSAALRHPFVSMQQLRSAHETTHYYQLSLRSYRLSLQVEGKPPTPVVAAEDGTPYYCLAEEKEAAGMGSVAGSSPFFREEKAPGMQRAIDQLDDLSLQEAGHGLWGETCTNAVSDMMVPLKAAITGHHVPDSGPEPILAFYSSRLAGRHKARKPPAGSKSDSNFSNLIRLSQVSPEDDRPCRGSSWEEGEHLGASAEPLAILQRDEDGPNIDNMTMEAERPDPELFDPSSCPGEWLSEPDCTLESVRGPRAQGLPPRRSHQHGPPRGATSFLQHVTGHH
As for the experimental part: as §1

In the next test the target is T7, JAK3 (Homo sapiens, UniProt P52333).
T7 construct: purchased ProQinase (Freiburg, Germany)
T7 sequence (P52333 1-1124): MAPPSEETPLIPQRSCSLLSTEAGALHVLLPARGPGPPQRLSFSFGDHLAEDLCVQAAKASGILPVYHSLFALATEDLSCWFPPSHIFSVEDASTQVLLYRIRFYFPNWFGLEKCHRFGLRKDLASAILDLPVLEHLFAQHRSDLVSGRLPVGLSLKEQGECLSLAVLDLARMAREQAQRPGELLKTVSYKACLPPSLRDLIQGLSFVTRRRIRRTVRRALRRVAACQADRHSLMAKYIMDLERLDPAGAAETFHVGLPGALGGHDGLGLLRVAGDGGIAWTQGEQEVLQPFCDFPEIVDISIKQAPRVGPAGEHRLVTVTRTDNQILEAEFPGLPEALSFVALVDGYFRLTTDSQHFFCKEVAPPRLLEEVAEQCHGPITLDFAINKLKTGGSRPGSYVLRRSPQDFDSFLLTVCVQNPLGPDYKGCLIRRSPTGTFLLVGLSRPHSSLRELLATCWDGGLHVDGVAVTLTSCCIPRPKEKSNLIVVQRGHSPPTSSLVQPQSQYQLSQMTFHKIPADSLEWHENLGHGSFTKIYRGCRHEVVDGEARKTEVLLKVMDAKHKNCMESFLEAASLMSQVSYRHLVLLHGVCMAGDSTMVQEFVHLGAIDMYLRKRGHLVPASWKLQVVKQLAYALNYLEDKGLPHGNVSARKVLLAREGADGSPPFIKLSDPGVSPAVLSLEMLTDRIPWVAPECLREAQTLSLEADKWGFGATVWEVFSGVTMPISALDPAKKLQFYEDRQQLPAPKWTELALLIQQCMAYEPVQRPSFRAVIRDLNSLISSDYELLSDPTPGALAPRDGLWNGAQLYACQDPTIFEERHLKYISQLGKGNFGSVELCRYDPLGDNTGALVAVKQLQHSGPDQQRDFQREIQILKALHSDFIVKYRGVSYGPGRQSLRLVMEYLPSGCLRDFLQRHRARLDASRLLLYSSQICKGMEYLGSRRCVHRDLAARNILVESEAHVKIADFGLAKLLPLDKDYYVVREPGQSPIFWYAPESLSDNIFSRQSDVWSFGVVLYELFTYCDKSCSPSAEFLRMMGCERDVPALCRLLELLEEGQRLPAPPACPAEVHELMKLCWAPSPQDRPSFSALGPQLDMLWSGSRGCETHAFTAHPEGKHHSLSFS
As to the method: as §1

The next test has as its target T8, RAF1 YDYD (Homo sapiens, UniProt P04049, Y340D/Y341D).
T8 construct: purchased ProQinase (Freiburg, Germany)
As for the experimental part: as §1

A further test has as its target T9, STK39 (Homo sapiens, UniProt Q9UEW8).
T9 construct: purchased ProQinase (Freiburg, Germany)
As to the method: as §1

Bounds are passed on as bounds.

T1 sequence (Q9UM73 19-1620): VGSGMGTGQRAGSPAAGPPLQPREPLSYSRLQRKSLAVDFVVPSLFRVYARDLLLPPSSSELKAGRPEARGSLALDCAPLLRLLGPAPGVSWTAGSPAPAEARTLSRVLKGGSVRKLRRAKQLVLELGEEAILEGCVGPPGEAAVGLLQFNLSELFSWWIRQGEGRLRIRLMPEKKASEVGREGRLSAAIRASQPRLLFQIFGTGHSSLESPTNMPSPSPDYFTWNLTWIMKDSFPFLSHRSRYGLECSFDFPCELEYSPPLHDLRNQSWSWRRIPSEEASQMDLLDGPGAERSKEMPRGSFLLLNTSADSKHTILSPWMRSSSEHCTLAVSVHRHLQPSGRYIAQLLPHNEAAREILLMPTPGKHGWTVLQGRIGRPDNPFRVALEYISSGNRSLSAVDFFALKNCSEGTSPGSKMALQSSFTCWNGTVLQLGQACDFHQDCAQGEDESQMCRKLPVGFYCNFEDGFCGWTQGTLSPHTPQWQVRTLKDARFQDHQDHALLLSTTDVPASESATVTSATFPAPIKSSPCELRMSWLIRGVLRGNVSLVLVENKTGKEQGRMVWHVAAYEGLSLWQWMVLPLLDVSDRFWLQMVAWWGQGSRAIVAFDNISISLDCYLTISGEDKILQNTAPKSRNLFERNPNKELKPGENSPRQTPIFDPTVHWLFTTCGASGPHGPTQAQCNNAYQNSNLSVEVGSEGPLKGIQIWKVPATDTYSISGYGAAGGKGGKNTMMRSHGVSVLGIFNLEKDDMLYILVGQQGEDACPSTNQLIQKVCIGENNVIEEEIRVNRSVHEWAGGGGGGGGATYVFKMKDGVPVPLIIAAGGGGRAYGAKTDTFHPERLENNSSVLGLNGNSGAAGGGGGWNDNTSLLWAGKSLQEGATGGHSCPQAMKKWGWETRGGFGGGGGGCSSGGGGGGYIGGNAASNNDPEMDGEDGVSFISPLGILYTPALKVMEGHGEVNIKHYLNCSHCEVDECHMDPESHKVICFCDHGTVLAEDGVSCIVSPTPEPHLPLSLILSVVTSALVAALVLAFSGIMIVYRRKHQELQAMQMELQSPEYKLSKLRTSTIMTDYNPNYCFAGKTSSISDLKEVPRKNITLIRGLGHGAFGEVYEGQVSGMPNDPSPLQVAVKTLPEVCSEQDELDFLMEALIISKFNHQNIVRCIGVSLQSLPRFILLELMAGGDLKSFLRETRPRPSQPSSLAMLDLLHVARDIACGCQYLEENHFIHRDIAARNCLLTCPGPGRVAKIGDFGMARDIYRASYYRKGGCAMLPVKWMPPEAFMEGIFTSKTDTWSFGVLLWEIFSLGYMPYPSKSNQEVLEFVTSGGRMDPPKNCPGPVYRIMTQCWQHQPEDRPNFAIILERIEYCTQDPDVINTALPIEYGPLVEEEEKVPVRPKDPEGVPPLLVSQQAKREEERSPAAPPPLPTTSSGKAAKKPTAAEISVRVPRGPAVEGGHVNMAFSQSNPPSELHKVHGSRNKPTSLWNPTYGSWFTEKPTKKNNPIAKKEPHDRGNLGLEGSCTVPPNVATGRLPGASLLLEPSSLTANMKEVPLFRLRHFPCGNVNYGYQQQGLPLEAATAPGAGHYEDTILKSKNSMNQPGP

For `O=C(Nc1ccc(F)c(Nc2ccc3c(c2)CCCCC3=O)c1)c1cccc(F)c1` [Compound 109], the Residual activity on ALK (1.0E-05 M) is recorded as 92 % of control; at ALK (1.0E-06 M) it was 95 % of control; on AuroraC (1.0E-05 M), 101 % of control; at AuroraC (1.0E-06 M), 99 % of control; at CDK1/CycB1 (1.0E-05 M), 114 % of control; at CDK1/CycB1 (1.0E-06 M), 106 % of control. Moreover, the Residual activity on EGFR (1.0E-05 M) is recorded as 93 % of control; at EGFR (1.0E-06 M), 105 % of control; at FRK (1.0E-05 M) it was 102 % of control; at FRK (1.0E-06 M), 107 % of control; on HIPK4 (1.0E-05 M), 91 % of control; on HIPK4 (1.0E-06 M), 95 % of control. The Residual activity at JAK3 (1.0E-05 M) is 79 % of control; at JAK3 (1.0E-06 M), 83 % of control; at RAF1 YDYD (1.0E-05 M), 12 % of control; on RAF1 YDYD (1.0E-06 M) it was 36 % of control; on STK39 (1.0E-05 M), 100 % of control; at STK39 (1.0E-06 M) it was 90 % of control. Further, at RAF1 YDYD (1 µM), the inhibition at 1 µM was at least 50%. At RAF1 YDYD, this compound returned an inhibition at 10 µM of at least 50%.

Consider `O=C(Cc1ccccc1)Nc1ccc(F)c(Nc2ccc3c(c2)CCCCC3=O)c1` [Compound 100], for which the Residual activity on ALK (1.0E-05 M) is 72 % of control; on ALK (1.0E-06 M), 86 % of control; on AuroraC (1.0E-05 M) it was 101 % of control; on AuroraC (1.0E-06 M), 110 % of control; on CDK1/CycB1 (1.0E-05 M) it was 100 % of control; at CDK1/CycB1 (1.0E-06 M), 107 % of control. In addition, the Residual activity at EGFR (1.0E-05 M) was 99 % of control; on EGFR (1.0E-06 M), 100 % of control; at FRK (1.0E-05 M), 104 % of control; at FRK (1.0E-06 M), 107 % of control; on HIPK4 (1.0E-05 M) it was 84 % of control; at HIPK4 (1.0E-06 M), 92 % of control. In addition, the Residual activity is reported as 75 % of control at JAK3 (1.0E-05 M); 80 % of control at JAK3 (1.0E-06 M); 3 % of control at RAF1 YDYD (1.0E-05 M); 14 % of control at RAF1 YDYD (1.0E-06 M); 106 % of control at STK39 (1.0E-05 M); 108 % of control at STK39 (1.0E-06 M). Also, the “inhibition of RAF1” value against RAF1 YDYD (1 µM) was “inhibited considerably”. On RAF1 YDYD, this compound yielded an inhibition at 10 µM of at least 50%.

In general, inhibition refers to the change of the read-out against control, counted positive when it falls.
